The IC50 is the concentration that gives 50% inhibition. Low readings indicate inhibition by little substance, high ones a need for much substance.

Bounds are passed on as bounds.

For the assay, the target named is EGFR (UniProt P00533).
EGFR, sequence (P00533 whole entry, looked up): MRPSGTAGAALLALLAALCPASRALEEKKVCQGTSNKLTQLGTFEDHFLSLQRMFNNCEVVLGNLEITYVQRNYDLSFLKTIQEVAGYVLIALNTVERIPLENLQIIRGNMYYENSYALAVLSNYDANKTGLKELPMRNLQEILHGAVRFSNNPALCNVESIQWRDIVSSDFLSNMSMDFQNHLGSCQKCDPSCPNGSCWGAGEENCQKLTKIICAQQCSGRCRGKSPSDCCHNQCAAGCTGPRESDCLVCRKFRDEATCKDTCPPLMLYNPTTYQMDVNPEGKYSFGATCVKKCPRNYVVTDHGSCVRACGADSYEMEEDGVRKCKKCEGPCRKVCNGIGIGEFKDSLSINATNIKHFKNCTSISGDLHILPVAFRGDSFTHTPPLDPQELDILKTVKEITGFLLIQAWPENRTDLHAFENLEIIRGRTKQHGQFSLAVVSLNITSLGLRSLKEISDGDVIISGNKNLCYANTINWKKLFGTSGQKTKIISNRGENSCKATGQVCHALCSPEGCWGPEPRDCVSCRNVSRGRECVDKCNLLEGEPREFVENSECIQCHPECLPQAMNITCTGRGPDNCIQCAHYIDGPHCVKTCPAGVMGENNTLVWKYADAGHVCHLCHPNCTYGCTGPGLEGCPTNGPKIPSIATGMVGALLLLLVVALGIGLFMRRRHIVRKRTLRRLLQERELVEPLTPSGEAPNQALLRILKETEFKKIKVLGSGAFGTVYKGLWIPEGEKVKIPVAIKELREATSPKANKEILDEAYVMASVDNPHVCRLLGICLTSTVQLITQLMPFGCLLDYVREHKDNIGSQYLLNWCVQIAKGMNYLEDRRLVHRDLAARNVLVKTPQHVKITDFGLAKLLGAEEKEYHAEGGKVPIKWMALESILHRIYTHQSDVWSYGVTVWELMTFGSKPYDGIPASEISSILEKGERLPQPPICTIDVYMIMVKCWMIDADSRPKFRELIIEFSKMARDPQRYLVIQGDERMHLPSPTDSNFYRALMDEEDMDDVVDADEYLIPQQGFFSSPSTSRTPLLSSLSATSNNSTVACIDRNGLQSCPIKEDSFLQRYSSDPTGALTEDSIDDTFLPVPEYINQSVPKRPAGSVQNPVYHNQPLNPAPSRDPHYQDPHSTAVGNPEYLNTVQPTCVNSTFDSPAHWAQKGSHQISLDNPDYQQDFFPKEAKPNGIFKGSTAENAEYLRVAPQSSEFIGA
With `Cc1ccc2ncnc(Nc3ccc(C)c(C)c3)c2c1`, the IC50 was > 45 µM.
With `Clc1cccc(Nc2ncnc3ccccc23)c1`, the IC50 worked out at 0.205 µM. This lies in the sub-micromolar range.
As for `Cc1ccc2ncnc(Nc3cccc(C(N)=O)c3)c2c1`, the IC50 is > 50 µM.
Take `Cc1ccc2ncnc(Nc3cccc(C(=O)O)c3)c2c1`: the IC50 is > 50 µM.
In turn, `COc1cc2nc(Nc3ccc(C)cc3)nc(Nc3ccc(C)cc3)c2cc1OC` showed an IC50 of 3.4 µM.
With `COc1cc2nc(Cl)nc(Nc3ccc(C)cc3)c2cc1OC`, the IC50 stood at 4.9 µM. The IC50 values of the last two molecules are within 1.5-fold of each other.
Next, `Cc1cccc2c(Nc3cccc(Cl)c3)ncnc12`: > 50 µM; `COc1cc2ncnc(Nc3ccccc3)c2cc1OC`: > 50 µM.
The value for `Cc1ccc2ncnc(Nc3ccc(O)cc3)c2c1` was > 50 µM; that for `Clc1ccccc1Nc1ncnc2ccccc12` was > 50 µM; that for `Cc1ccc2ncnc(Nc3ccc(C#N)cc3)c2c1` was > 50 µM.
In turn, `COc1cc2nc(Cl)nc(Nc3cccc(Cl)c3)c2cc1OC` gave an IC50 of 20 µM.
Consider `Cc1ccc2ncnc(Nc3ccccc3Cl)c2c1`, for which the IC50 is > 50 µM.
The molecule `Cc1ccc2ncnc(Nc3ccc4c(c3)OCO4)c2c1` had an IC50 of 21 µM.
Molecule `COc1ccc(Nc2ncnc3ccc(C)cc23)cc1` yielded an IC50 of 10 µM.
`Cc1ccc2ncnc(Nc3cccc(Br)c3)c2c1`: the IC50 was found to be 0.33 µM.
Next, `COc1cc2ncnc(Nc3cc(Cl)cc(Cl)c3)c2cc1OC`: 0.024 µM.
As to `COc1cc2c(Nc3cccc(Cl)c3)ncnc2c(OC)c1OC`, the IC50 is > 50 µM.
As for `COc1cccc(Nc2ncnc3cc(OC)c(OC)cc23)c1`, the IC50 amounted to 1 µM.
Regarding `Cc1ccc2ncnc(Nc3ccccc3C)c2c1`, the IC50 is > 50 µM.
Molecule `COc1cc2nc(N3CCN(C)CC3)nc(Nc3cccc(Cl)c3)c2cc1OC` registered an IC50 of 3.4 µM.
As for `Cc1ccc2ncnc(Nc3ccccc3O)c2c1`, the IC50 was > 50 µM.
Next, `Cc1ccc2ncnc(Nc3ccc(Br)cc3)c2c1`: 14 µM; `Cc1ccc2ncnc(Nc3ccccc3)c2c1`: > 50 µM.
Next, `Cc1ccc2ncnc(Nc3cccc(Cl)c3)c2c1`: 0.037 µM.
Regarding `Cc1ccc2ncnc(Nc3cccc(C(F)(F)F)c3)c2c1`, the half-maximal inhibitory concentration (IC50) was 0.86 µM.
With `Cc1ccc(Nc2ncnc3ccc(C)cc23)cc1`, the IC50 was > 50 µM.
Next, `COc1cc2ncnc(Nc3cccc(I)c3)c2cc1OC`: 0.0017 µM.
